Results published in ChEMBL document CHEMBL1671617, “Correlation of antimicrobial resistance with beta-lactamases, the OmpA-like porin, and efflux pumps in clinical isolates of Acinetobacter baumannii endemic to New York City” (2008).
Values after ≈ are worked out from the molar mass of the structure shown.

What was measured:
Assay type in all cases: functional
Acinetobacter baumannii [1] = assay: Antimicrobial activity against ISAba1 linked with the blaOXA-51-type beta-lactamase harboring Acinetobacter baumannii beta clonal group isolate 11 expressing ompA, adeB, adeM, blaSHV-5 by Etest method
Acinetobacter baumannii [2] = assay: Antimicrobial activity against Acinetobacter baumannii nu clonal group isolate 31 expressing ampC, ompA, adeB, adeM, aadB, aadA2 by Etest method
Acinetobacter baumannii [3] = assay: Antimicrobial activity against ISAba1 linked with the blaOXA-51-type beta-lactamase harboring Acinetobacter baumannii zeta clonal group isolate 26 expressing ampC, ompA, adeB, adeM, aadA1, aacA4, aacC2, blaSHV-5 by Etest method
Acinetobacter baumannii [4] = assay: Antimicrobial activity against ISAba1 linked with the blaOXA-51-type beta-lactamase harboring Acinetobacter baumannii alpha clonal group isolate 7 expressing ampC, ompA, adeB, adeM, blaSHV-5 by Etest method
Acinetobacter baumannii [5] = assay: Antimicrobial activity against Acinetobacter baumannii nu clonal group isolate 34 expressing ampC, ompA, adeB, adeM by Etest method
Acinetobacter baumannii [6] = assay: Antimicrobial activity against ISAba1 linked with the blaOXA-51-type beta-lactamase harboring Acinetobacter baumannii zeta clonal group isolate 23 expressing ampC, ompA, adeB, adeM, aadA1, aacA4, aacC2, aphA6 by Etest method
Acinetobacter baumannii [7] = assay: Antimicrobial activity against Acinetobacter baumannii nu clonal group isolate 32 expressing ampC, ompA, adeB, adeM, aadB, aadA2 by Etest method
Acinetobacter baumannii [8] = assay: Antimicrobial activity against ISAba1 linked with the blaOXA-51-type beta-lactamase harboring Acinetobacter baumannii beta clonal group isolate 17 expressing ompA, adeB, adeM, aacA4, blaSHV-5 by Etest method
Acinetobacter baumannii [9] = assay: Antimicrobial activity against Acinetobacter baumannii unique clonal group isolate 37 expressing ampC, ompA, adeB, adeM by Etest method
Acinetobacter baumannii [10] = assay: Antimicrobial activity against ISAba1 linked with the blaOXA-51-type beta-lactamase harboring Acinetobacter baumannii beta clonal group isolate 18 expressing ompA, adeB, adeM, aacA4, blaSHV-5 by Etest method
Acinetobacter baumannii [11] = assay: Antimicrobial activity against Acinetobacter baumannii alpha clonal group isolate 2 expressing ampC, ompA, adeB, adeM, aacC1, aadA1 by Etest method
Acinetobacter baumannii [12] = assay: Antimicrobial activity against Acinetobacter baumannii unique clonal group isolate 38 expressing ampC, ompA, adeB, adeM by Etest method
Acinetobacter baumannii [13] = assay: Antimicrobial activity against Acinetobacter baumannii alpha clonal group isolate 5 expressing ampC, ompA, adeB, adeM, aacC1, aadA1 by Etest method
Acinetobacter baumannii [14] = assay: Antimicrobial activity against ISAba1 linked with the blaOXA-51-type beta-lactamase harboring Acinetobacter baumannii zeta clonal group isolate 19 expressing ampC, ompA, adeB, adeM, aacC2 by Etest method
Acinetobacter baumannii [15] = assay: Antimicrobial activity against Acinetobacter baumannii alpha clonal group isolate 3 expressing ampC, ompA, adeB, adeM, aacC1, aadA1 by Etest method
Acinetobacter baumannii [16] = assay: Antimicrobial activity against ISAba1 linked with the blaOXA-51-type beta-lactamase harboring Acinetobacter baumannii unique clonal group isolate 40 expressing ampC, ompA, adeB, adeM, aadA1, aacA4, aacC2, blaSHV-5 by Etest method
Acinetobacter baumannii [17] = assay: Antimicrobial activity against ISAba1 linked with the blaOXA-51-type beta-lactamase harboring Acinetobacter baumannii alpha clonal group isolate 6 expressing ampC, ompA, adeB, adeM, aacC1, aadA1 by Etest method
Acinetobacter baumannii [18] = assay: Antimicrobial activity against ISAba1 linked with the blaOXA-51-type beta-lactamase harboring Acinetobacter baumannii alpha clonal group isolate 1 expressing ampC, ompA, adeB, adeM by Etest method
Acinetobacter baumannii [19] = assay: Antimicrobial activity against ISAba1 linked with the blaOXA-51-type beta-lactamase harboring Acinetobacter baumannii zeta clonal group isolate 20 expressing ampC, ompA, adeB, adeM, aacC2 by Etest method
Acinetobacter baumannii [20] = assay: Antimicrobial activity against ISAba1 linked with the blaOXA-51-type beta-lactamase harboring Acinetobacter baumannii beta clonal group isolate 9 expressing ampC, ompA, adeB, adeM by Etest method
Acinetobacter baumannii [21] = assay: Antimicrobial activity against ISAba1 linked with the blaOXA-51-type beta-lactamase harboring Acinetobacter baumannii alpha clonal group isolate 8 expressing ampC, ompA, adeB, adeM, aacC1, aadA1 by Etest method
Acinetobacter baumannii [22] = assay: Antimicrobial activity against ISAba1 linked with the blaOXA-51-type beta-lactamase harboring Acinetobacter baumannii beta clonal group isolate 15 expressing ompA, adeB, adeM, aacA4, blaSHV-5 by Etest method
Acinetobacter baumannii [23] = assay: Antimicrobial activity against ISAba1 linked with the blaOXA-51-type beta-lactamase harboring Acinetobacter baumannii beta clonal group isolate 10 expressing ompA, adeB, adeM, aacA4, blaSHV-5 by Etest method
Acinetobacter baumannii [24] = assay: Antimicrobial activity against ISAba1 linked with the blaOXA-51-type beta-lactamase harboring Acinetobacter baumannii beta clonal group isolate 13 expressing ompA, adeB, adeM, aacA4, blaSHV-5 by Etest method
Acinetobacter baumannii [25] = assay: Antimicrobial activity against ISAba1 linked with the blaOXA-51-type beta-lactamase harboring Acinetobacter baumannii beta clonal group isolate 14 expressing ompA, adeB, adeM, aacA4, blaSHV-5 by Etest method
Acinetobacter baumannii [26] = assay: Antimicrobial activity against ISAba1 linked with the blaOXA-51-type beta-lactamase harboring Acinetobacter baumannii beta clonal group isolate 12 expressing ompA, adeB, adeM, aacA4, aacC2, blaSHV-5 by Etest method
Acinetobacter baumannii [27] = assay: Antimicrobial activity against ISAba1 linked with the blaOXA-51-type beta-lactamase harboring Acinetobacter baumannii zeta clonal group isolate 21 expressing ampC, ompA, adeB, adeM, aacC2, blaSHV-5 by Etest method
Acinetobacter baumannii [28] = assay: Antimicrobial activity against ISAba1 linked with the blaOXA-51-type beta-lactamase harboring Acinetobacter baumannii zeta clonal group isolate 25 expressing ampC, ompA, adeB, adeM, aadA1, aacA4, aacC2, blaSHV-5 by Etest method
Acinetobacter baumannii [29] = assay: Antimicrobial activity against ISAba1 linked with the blaOXA-51-type beta-lactamase harboring Acinetobacter baumannii beta clonal group isolate 16 expressing ompA, adeB, adeM, aacA4, blaSHV-5 by Etest method
Acinetobacter baumannii [30] = assay: Antimicrobial activity against Acinetobacter baumannii alpha clonal group isolate 4 expressing ampC, ompA, adeB, adeM, aacC1, aadA1 by Etest method
Acinetobacter baumannii [31] = assay: Antimicrobial activity against Acinetobacter baumannii unique clonal group isolate 39 expressing ampC, ompA, adeM by Etest method
Acinetobacter baumannii [32] = assay: Antimicrobial activity against Acinetobacter baumannii nu clonal group isolate 33 expressing ampC, ompA, adeB, adeM by Etest method
Acinetobacter baumannii [33] = assay: Antimicrobial activity against ISAba1 linked with the blaOXA-51-type beta-lactamase harboring Acinetobacter baumannii lambda clonal group isolate 30 expressing ampC, ompA, adeB, adeM, aadB, aadA1 by Etest method
Acinetobacter baumannii [34] = assay: Antimicrobial activity against Acinetobacter baumannii lambda clonal group isolate 27 expressing ampC, ompA, adeB, adeM, aadB, aadA1 by Etest method
Acinetobacter baumannii [35] = assay: Antimicrobial activity against ISAba1 linked with the blaOXA-51-type beta-lactamase harboring Acinetobacter baumannii zeta clonal group isolate 24 expressing ampC, ompA, adeB, adeM, aadA1, aacA4, aacC2, blaSHV-5 by Etest method
Acinetobacter baumannii [36] = assay: Antimicrobial activity against Acinetobacter baumannii eta clonal group isolate 36 expressing ampC, ompA, adeB, adeM by Etest method
Acinetobacter baumannii [37] = assay: Antimicrobial activity against ISAba1 linked with the blaOXA-51-type beta-lactamase harboring Acinetobacter baumannii lambda clonal group isolate 29 expressing ampC, ompA, adeM, aadB, aadA1 by Etest method
Acinetobacter baumannii [38] = assay: Antimicrobial activity against ISAba1 linked with the blaOXA-51-type beta-lactamase harboring Acinetobacter baumannii zeta clonal group isolate 22 expressing ampC, ompA, adeB, adeM, aadA1, aacA4, aacC2, blaSHV-5 by Etest method
Acinetobacter baumannii [39] = assay: Antimicrobial activity against Acinetobacter baumannii eta clonal group isolate 35 expressing ampC, ompA, adeB, adeM by Etest method
Acinetobacter baumannii [40] = assay: Antimicrobial activity against ISAba1 linked with the blaOXA-51-type beta-lactamase harboring Acinetobacter baumannii lambda clonal group isolate 28 expressing ampC, ompA, adeM, aadB, aadA1 by Etest method

Molecule: CN(C)c1cc(NC(=O)CNC(C)(C)C)c(O)c2c1C[C@H]1C[C@H]3[C@H](N(C)C)C(O)=C(C(N)=O)C(=O)[C@@]3(O)C(O)=C1C2=O [TIGECYCLINE]
- MIC (Acinetobacter baumannii [1]): 1 µg/mL (≈ 1.71 µM)
- MIC (Acinetobacter baumannii [2]): 0.5 µg/mL (≈ 0.854 µM)
- MIC (Acinetobacter baumannii [3]): 1 µg/mL (≈ 1.71 µM)
- MIC (Acinetobacter baumannii [4]): 0.75 µg/mL (≈ 1.28 µM)
- MIC (Acinetobacter baumannii [5]): 0.5 µg/mL (≈ 0.854 µM)
- MIC (Acinetobacter baumannii [6]): 1.5 µg/mL (≈ 2.56 µM)
- MIC (Acinetobacter baumannii [7]): 0.5 µg/mL (≈ 0.854 µM)
- MIC (Acinetobacter baumannii [8]): 0.5 µg/mL (≈ 0.854 µM)
- MIC (Acinetobacter baumannii [9]): 0.25 µg/mL (≈ 0.427 µM)
- MIC (Acinetobacter baumannii [10]): 3 µg/mL (≈ 5.12 µM)
- MIC (Acinetobacter baumannii [11]): 1 µg/mL (≈ 1.71 µM)
- MIC (Acinetobacter baumannii [12]): 0.09 µg/mL (≈ 0.154 µM)
- MIC (Acinetobacter baumannii [13]): 1 µg/mL (≈ 1.71 µM)
- MIC (Acinetobacter baumannii [14]): 0.75 µg/mL (≈ 1.28 µM)
- MIC (Acinetobacter baumannii [15]): 1 µg/mL (≈ 1.71 µM)
- MIC (Acinetobacter baumannii [16]): 0.75 µg/mL (≈ 1.28 µM)
- MIC (Acinetobacter baumannii [17]): 0.75 µg/mL (≈ 1.28 µM)
- MIC (Acinetobacter baumannii [18]): 1 µg/mL (≈ 1.71 µM)
- MIC (Acinetobacter baumannii [19]): 0.75 µg/mL (≈ 1.28 µM)
- MIC (Acinetobacter baumannii [20]): 3 µg/mL (≈ 5.12 µM)
- MIC (Acinetobacter baumannii [21]): 2 µg/mL (≈ 3.41 µM)
- MIC (Acinetobacter baumannii [22]): 0.5 µg/mL (≈ 0.854 µM)
- MIC (Acinetobacter baumannii [23]): 1 µg/mL (≈ 1.71 µM)
- MIC (Acinetobacter baumannii [24]): 0.5 µg/mL (≈ 0.854 µM)
- MIC (Acinetobacter baumannii [25]): 0.5 µg/mL (≈ 0.854 µM)
- MIC (Acinetobacter baumannii [26]): 1 µg/mL (≈ 1.71 µM)
- MIC (Acinetobacter baumannii [27]): 1.5 µg/mL (≈ 2.56 µM)
- MIC (Acinetobacter baumannii [28]): 1 µg/mL (≈ 1.71 µM)
- MIC (Acinetobacter baumannii [29]): 0.5 µg/mL (≈ 0.854 µM)
- MIC (Acinetobacter baumannii [30]): 1 µg/mL (≈ 1.71 µM)
- MIC (Acinetobacter baumannii [31]): 0.25 µg/mL (≈ 0.427 µM)
- MIC (Acinetobacter baumannii [32]): 0.5 µg/mL (≈ 0.854 µM)
- MIC (Acinetobacter baumannii [33]): 2 µg/mL (≈ 3.41 µM)
- MIC (Acinetobacter baumannii [34]): 0.19 µg/mL (≈ 0.324 µM)
- MIC (Acinetobacter baumannii [35]): 1 µg/mL (≈ 1.71 µM)
- MIC (Acinetobacter baumannii [36]): 0.25 µg/mL (≈ 0.427 µM)
- MIC (Acinetobacter baumannii [37]): 0.19 µg/mL (≈ 0.324 µM)
- MIC (Acinetobacter baumannii [38]): 2 µg/mL (≈ 3.41 µM)
- MIC (Acinetobacter baumannii [39]): 0.25 µg/mL (≈ 0.427 µM)
- MIC (Acinetobacter baumannii [40]): 0.19 µg/mL (≈ 0.324 µM)

Molecule: GENTAMICIN
- MIC (Acinetobacter baumannii [1]): 2 µg/mL
- MIC (Acinetobacter baumannii [2]): > 256 µg/mL
- MIC (Acinetobacter baumannii [3]): > 256 µg/mL
- MIC (Acinetobacter baumannii [4]): 2 µg/mL
- MIC (Acinetobacter baumannii [5]): 2 µg/mL
- MIC (Acinetobacter baumannii [6]): > 256 µg/mL
- MIC (Acinetobacter baumannii [7]): > 256 µg/mL
- MIC (Acinetobacter baumannii [8]): 8 µg/mL
- MIC (Acinetobacter baumannii [9]): 6 µg/mL
- MIC (Acinetobacter baumannii [10]): 64 µg/mL
- MIC (Acinetobacter baumannii [11]): 12 µg/mL
- MIC (Acinetobacter baumannii [12]): 0.25 µg/mL
- MIC (Acinetobacter baumannii [13]): 12 µg/mL
- MIC (Acinetobacter baumannii [14]): > 256 µg/mL
- MIC (Acinetobacter baumannii [15]): 12 µg/mL
- MIC (Acinetobacter baumannii [16]): > 256 µg/mL
- MIC (Acinetobacter baumannii [17]): 8 µg/mL
- MIC (Acinetobacter baumannii [18]): 1 µg/mL
- MIC (Acinetobacter baumannii [19]): > 256 µg/mL
- MIC (Acinetobacter baumannii [20]): 6 µg/mL
- MIC (Acinetobacter baumannii [21]): 192 µg/mL
- MIC (Acinetobacter baumannii [22]): 8 µg/mL
- MIC (Acinetobacter baumannii [23]): 4 µg/mL
- MIC (Acinetobacter baumannii [24]): 8 µg/mL
- MIC (Acinetobacter baumannii [25]): 8 µg/mL
- MIC (Acinetobacter baumannii [26]): > 256 µg/mL
- MIC (Acinetobacter baumannii [27]): > 256 µg/mL
- MIC (Acinetobacter baumannii [28]): > 256 µg/mL
- MIC (Acinetobacter baumannii [29]): 8 µg/mL
- MIC (Acinetobacter baumannii [30]): 12 µg/mL
- MIC (Acinetobacter baumannii [31]): 0.38 µg/mL
- MIC (Acinetobacter baumannii [32]): 2 µg/mL
- MIC (Acinetobacter baumannii [33]): > 256 µg/mL
- MIC (Acinetobacter baumannii [34]): 1.5 µg/mL
- MIC (Acinetobacter baumannii [35]): > 256 µg/mL
- MIC (Acinetobacter baumannii [36]): 3 µg/mL
- MIC (Acinetobacter baumannii [37]): 16 µg/mL
- MIC (Acinetobacter baumannii [38]): > 256 µg/mL
- MIC (Acinetobacter baumannii [39]): 3 µg/mL
- MIC (Acinetobacter baumannii [40]): 16 µg/mL
